# Measurements published in patent USRE36784E, “Chemoprotective isothiocyanates” (The Johns Hopkins University, priority 1997, dated 2000).
# Key:
# [1] = system: QR (quinone reductase); test: Induction of QR in mouse tissues after gavage; type: in vivo, mouse (female CD-1)
# Experimental: (§1) The compounds were administered to 6week-old female CD1 mice (4 or 5 mice
# (§2) per group) by gavage in indicated single daily doses in 0.1 ml of Emulpho
# (§3) EL 620P (GAF. Linden, NJ) for 5 days. Cytosols were prepared from the
# (§4) tissues 24 hr after the last treatment and assayed for enzyme activities
# (§5) (glutathione Stransferase was measured with 1chloro-2,4-dinitrobenzene).
# (§6) The specific activities (nmol · min^-1 · mg^-1
# (§7) ± SEM) of organs of vehicletreated #control mice were as follows.
# (§8) 54 ± 5.8: GST. 439 ± 34. Data are presented as mean ± SEM.
# [2] = system: quinone reductase (QR) in Hepa 1c1c7 murine hepatoma cells; test: Induction of QR (inducer potency, CD value) in Hepa 1c1c7 murine hepatoma cells; type: cell-based
# Experimental: Assay of Inducer Potency. Inducer activity was measured in Hepa 1c1c7 murine hepatoma cells grown in 96-well microtiter plates (Prochaska and Santamaria, Anal. Biochem. 169:328-336 (1988); Prochaska et al., Proc. Natl. Acad. Sciences USA 89:2394-2398 (1992)). QR activity (based on the formation of the blue-brown reduced tetrazolium dye) was measured with an optical microtiter plate scanner in cell lysates prepared in one plate, and the cell density was determined in the second plate by staining with crystal violet. Quantitative information on specific activity of QR, the inducer potency, and the cytotoxicity of the extract or compound tested is obtained by computer analysis of the absorbances. One unit of inducer activity is defined as the amount that when added to a single microtiter well doubled the QR specific activity. The CD value is the concentration of a compound required to double the quinone reductase specific activity in Hepa 1c1c7 murine hepatoma cells.
# Each of the analogs of sulforaphane was tested for the ability to induce QR in murine hepatoma cells by the assay described in Example 1.
# Analogs were synthesized and tested in the hepatoma cell assay described in Example 1.
# [3] = system: female CD-1 mice; test: Toxicity in mice dosed by gavage; type: in vivo, mouse (female CD-1); conditions: compared with sulforaphane and erucin
# Excerpt: The sulfone (erysolin) was more toxic, but even 5-μmol daily doses for 5 days elevated the specific activities of these enzymes in some tissues examined. We therefore conclude that sulforaphane and its analogues not only induce QR in Hepa 1c1c7 murine hepatoma cells but also induce both QR and glutathione transferase activities in a number of murine organs.
# [4] = system: glutathione S-transferase (GST); test: Induction of glutathione S-transferase (GST) in mouse tissues after gavage; type: in vivo, mouse (female CD-1)
# Experimental: as §1, §2, §3, §4, §5, §6, §7, §8
# [5] = 5 μmol per mouse per day, gavage, 5 days, forestomach
# [6] = 5 μmol per mouse per day, gavage, 5 days, glandular stomach
# [7] = 5 μmol per mouse per day, gavage, 5 days, liver
# [8] = 5 μmol per mouse per day, gavage, 5 days, lung
# [9] = 5 μmol per mouse per day, gavage, 5 days, proximal small intestine
# [10] = 5-μmol daily doses for 5 days, some tissues
smiles,measurement,setting,value
CS(=O)(=O)CCCCN=C=S [Erysolin],"Ratio of specific activities (treated/control), QR, Forestomach",[1]; [5],1.05 ± 0.21
same,"Ratio of specific activities (treated/control), QR, Glandular stomach",[1]; [6],1.57 ± 0.08
same,"Ratio of specific activities (treated/control), QR, Liver",[1]; [7],1.62 ± 0.09
same,"Ratio of specific activities (treated/control), QR, Lung",[1]; [8],1.00 ± 0.11
same,"Ratio of specific activities (treated/control), QR, Proximal small intestine",[1]; [9],1.22 ± 0.20
same,elevation of QR specific activity,[1]; [10],elevated
same,EC (2-fold QR specific activity),"[2]; Mus musculus, Hepa-1c1c7, read-out: CD value, Table 1, QR induction, Hepa 1c1c7 cells",0.82 µM
same,relative potency as inducers of QR,"[2]; comparison in words, Table 1",equipotent
same,activity as inducers compared with sulforaphane and sulforaphene,[2]; in cell culture,less active
same,toxicity in mice,[3],more toxic
same,"Ratio of specific activities (treated/control), GST, Forestomach",[4]; [5],1.45 ± 0.15
same,"Ratio of specific activities (treated/control), GST, Glandular stomach",[4]; [6],1.94
same,"Ratio of specific activities (treated/control), GST, Liver",[4]; [7],1.08 ± 0.11
same,"Ratio of specific activities (treated/control), GST, Lung",[4]; [8],1.09
same,"Ratio of specific activities (treated/control), GST, Proximal small intestine",[4]; [9],0.87
same,elevation of glutathione transferase specific activity,[4]; [10],elevated
